Measured values taken from the supplement of paper PMC10307832.

Assays:
Test in all cases: relative viability (nuclei count vs DMSO), 5 days (fraction); higher = more cells survive
PC-3 [JPC-3] = tested on: PC-3 [JPC-3]
In short: (§1)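 Relative viability divides the nuclei count in treated wells by that in vehicle wells. Lung cancer cell lines were seeded in 1536-well plates, dosed by pin tool the next day, and fixed and stained after 5 days in one step with final 0.05% Triton X-100, 1% formaldehyde and 1 ug/ml Hoechst. Dosing was a single drug or a fixed anchor-drug dose plus five library-drug doses (not always all listed) in √10 steps, and values are medians of duplicate plates imaged at 4×.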

HOP-62 = tested on: HOP-62
In short: as §1

LU99A = tested on: LU99A
In short: as §1

EKVX = tested on: EKVX
In short: as §1

NCI-H3122 = tested on: NCI-H3122
In short: as §1

HCC-827 = tested on: HCC-827
In short: as §1

LCLC-97TM1 = tested on: LCLC-97TM1
In short: as §1

EPLC-272H = tested on: EPLC-272H
In short: as §1

UMC-11 = tested on: UMC-11
In short: as §1

SW 1573 = tested on: SW 1573
In short: as §1

H3255 = tested on: H3255
In short: as §1

NCI-H1650 = tested on: NCI-H1650
In short: as §1

NCI-H2228 = tested on: NCI-H2228
In short: as §1

NCI-H441 = tested on: NCI-H441
In short: as §1

LXF-289 = tested on: LXF-289
In short: as §1

NCI-H1355 = tested on: NCI-H1355
In short: as §1

NCI-H1993 = tested on: NCI-H1993
In short: as §1

NCI-H2405 = tested on: NCI-H2405
In short: as §1

ChaGo-K-1 = tested on: ChaGo-K-1
In short: as §1

SK-LU-1 = tested on: SK-LU-1
In short: as §1

Q: With `CN1CCN(CCOc2cc(OC3CCOCC3)c3c(Nc4c(Cl)ccc5c4OCO5)ncnc3c2)CC1` [Saracatinib] + CC(C)C[C@H](NC(=O)[C@H](Cc1ccccc1)NC(=O)c1cnccn1)B(O)O [Bortezomib] (partner 0.002 µM) as the compound, how does the relative viability (PC-3 [JPC-3]; first compound 0.02 µM) read?
A: Its relative viability is 0.905.

Q: And the relative viability (PC-3 [JPC-3]; first compound 0.2 µM)?
A: Its relative viability is 0.721.

Q: And the relative viability (PC-3 [JPC-3]; first compound 0.6325 µM)?
A: Its relative viability is 0.778.

Q: What about the relative viability (PC-3 [JPC-3]; first compound 2 µM) of the same compound?
A: Its relative viability is 0.486.

Q: What about the relative viability (HOP-62; first compound 0.02 µM) of the same compound?
A: Its relative viability is 0.715.

Q: And the relative viability (HOP-62; first compound 0.2 µM)?
A: Its relative viability is 0.718.

Q: What about the relative viability (HOP-62; first compound 0.6325 µM) of the same compound?
A: The relative viability was 0.692.

Q: And the relative viability (HOP-62; first compound 2 µM)?
A: The relative viability was 1.06.

Q: And the relative viability (LU99A; first compound 0.02 µM)?
A: Its relative viability is 1.1.

Q: What about the relative viability (LU99A; first compound 0.2 µM) of the same compound?
A: The relative viability was 1.

Q: What about the relative viability (LU99A; first compound 0.6325 µM) of the same compound?
A: The relative viability was 1.13.

Q: And the relative viability (LU99A; first compound 2 µM)?
A: The relative viability was 0.942.

Q: What about the relative viability (EKVX; first compound 0.02 µM) of the same compound?
A: The relative viability was 0.961.

Q: And the relative viability (EKVX; first compound 0.2 µM)?
A: Its relative viability is 0.861.

Q: And the relative viability (EKVX; first compound 0.6325 µM)?
A: Its relative viability is 1.16.

Q: What about the relative viability (EKVX; first compound 2 µM) of the same compound?
A: Its relative viability is 0.347.

Q: And the relative viability (NCI-H3122; first compound 0.02 µM)?
A: Its relative viability is 1.05.

Q: And the relative viability (NCI-H3122; first compound 0.6325 µM)?
A: Its relative viability is 0.964.

Q: What about the relative viability (NCI-H3122; first compound 2 µM) of the same compound?
A: The relative viability was 0.815.

Q: And the relative viability (HCC-827; first compound 0.02 µM)?
A: The relative viability was 0.965.

Q: And the relative viability (HCC-827; first compound 0.2 µM)?
A: Its relative viability is 0.963.

Q: And the relative viability (HCC-827; first compound 0.6325 µM)?
A: Its relative viability is 0.479.

Q: And the relative viability (HCC-827; first compound 2 µM)?
A: Its relative viability is 0.306.

Q: And the relative viability (LCLC-97TM1; first compound 0.02 µM)?
A: The relative viability was 0.786.

Q: What about the relative viability (LCLC-97TM1; first compound 0.6325 µM) of the same compound?
A: The relative viability was 0.995.

Q: And the relative viability (LCLC-97TM1; first compound 2 µM)?
A: The relative viability was 0.523.

Q: And the relative viability (EPLC-272H; first compound 0.02 µM)?
A: Its relative viability is 0.812.

Q: What about the relative viability (EPLC-272H; first compound 0.2 µM) of the same compound?
A: The relative viability was 0.786.

Q: And the relative viability (EPLC-272H; first compound 0.6325 µM)?
A: Its relative viability is 1.2.

Q: What about the relative viability (EPLC-272H; first compound 2 µM) of the same compound?
A: The relative viability was 0.932.

Q: What about the relative viability (UMC-11; first compound 0.02 µM) of the same compound?
A: The relative viability was 0.667.

Q: And the relative viability (UMC-11; first compound 0.6325 µM)?
A: The relative viability was 0.64.

Q: And the relative viability (UMC-11; first compound 2 µM)?
A: Its relative viability is 0.494.

Q: What about the relative viability (SW 1573; first compound 0.02 µM) of the same compound?
A: The relative viability was 0.997.

Q: And the relative viability (SW 1573; first compound 0.2 µM)?
A: Its relative viability is 0.906.

Q: And the relative viability (SW 1573; first compound 0.6325 µM)?
A: Its relative viability is 0.955.

Q: What about the relative viability (SW 1573; first compound 2 µM) of the same compound?
A: The relative viability was 0.933.

Q: What about the relative viability (H3255; first compound 0.02 µM) of the same compound?
A: The relative viability was 0.864.

Q: And the relative viability (H3255; first compound 0.2 µM)?
A: The relative viability was 0.892.

Q: What about the relative viability (H3255; first compound 0.6325 µM) of the same compound?
A: Its relative viability is 0.812.

Q: What about the relative viability (H3255; first compound 2 µM) of the same compound?
A: The relative viability was 0.272.

Q: What about the relative viability (NCI-H1650; first compound 0.02 µM) of the same compound?
A: Its relative viability is 0.179.

Q: What about the relative viability (NCI-H1650; first compound 0.2 µM) of the same compound?
A: Its relative viability is 0.192.

Q: What about the relative viability (NCI-H1650; first compound 0.6325 µM) of the same compound?
A: Its relative viability is 0.24.

Q: What about the relative viability (NCI-H1650; first compound 2 µM) of the same compound?
A: The relative viability was 0.206.

Q: And the relative viability (NCI-H2228; first compound 0.02 µM)?
A: Its relative viability is 1.05.

Q: And the relative viability (NCI-H2228; first compound 0.2 µM)?
A: The relative viability was 0.684.

Q: What about the relative viability (NCI-H2228; first compound 0.6325 µM) of the same compound?
A: The relative viability was 1.2.

Q: And the relative viability (NCI-H2228; first compound 2 µM)?
A: The relative viability was 0.652.

Q: What about the relative viability (NCI-H441; first compound 0.02 µM) of the same compound?
A: The relative viability was 0.451.

Q: And the relative viability (NCI-H441; first compound 0.2 µM)?
A: Its relative viability is 0.562.

Q: And the relative viability (NCI-H441; first compound 0.6325 µM)?
A: The relative viability was 1.03.

Q: And the relative viability (NCI-H441; first compound 2 µM)?
A: Its relative viability is 0.831.

Q: And the relative viability (LXF-289; first compound 0.02 µM)?
A: Its relative viability is 0.937.

Q: And the relative viability (LXF-289; first compound 0.2 µM)?
A: The relative viability was 0.959.

Q: And the relative viability (LXF-289; first compound 0.6325 µM)?
A: The relative viability was 0.966.

Q: And the relative viability (LXF-289; first compound 2 µM)?
A: Its relative viability is 0.987.

Q: What about the relative viability (NCI-H1355; first compound 0.02 µM) of the same compound?
A: The relative viability was 1.18.

Q: What about the relative viability (NCI-H1355; first compound 0.2 µM) of the same compound?
A: Its relative viability is 1.15.

Q: And the relative viability (NCI-H1355; first compound 0.6325 µM)?
A: Its relative viability is 1.44.

Q: And the relative viability (NCI-H1355; first compound 2 µM)?
A: Its relative viability is 1.17.

Q: What about the relative viability (NCI-H1993; first compound 0.02 µM) of the same compound?
A: The relative viability was 1.18.

Q: And the relative viability (NCI-H1993; first compound 0.2 µM)?
A: Its relative viability is 0.559.

Q: And the relative viability (NCI-H1993; first compound 2 µM)?
A: The relative viability was 0.67.

Q: And the relative viability (NCI-H2405; first compound 0.02 µM)?
A: Its relative viability is 1.03.

Q: What about the relative viability (NCI-H2405; first compound 0.2 µM) of the same compound?
A: The relative viability was 0.749.

Q: What about the relative viability (NCI-H2405; first compound 0.6325 µM) of the same compound?
A: The relative viability was 0.736.

Q: And the relative viability (NCI-H2405; first compound 2 µM)?
A: The relative viability was 0.716.

Q: And the relative viability (ChaGo-K-1; first compound 0.02 µM)?
A: Its relative viability is 1.1.

Q: And the relative viability (ChaGo-K-1; first compound 0.2 µM)?
A: Its relative viability is 0.866.

Q: And the relative viability (ChaGo-K-1; first compound 0.6325 µM)?
A: The relative viability was 1.05.

Q: And the relative viability (ChaGo-K-1; first compound 2 µM)?
A: Its relative viability is 0.79.

Q: What about the relative viability (SK-LU-1; first compound 0.02 µM) of the same compound?
A: The relative viability was 1.31.

Q: And the relative viability (SK-LU-1; first compound 0.2 µM)?
A: The relative viability was 1.19.

Q: And the relative viability (SK-LU-1; first compound 0.6325 µM)?
A: The relative viability was 0.829.

Q: And the relative viability (SK-LU-1; first compound 2 µM)?
A: Its relative viability is 0.735.
